Test results as given in patent publication US20060089395A1, “Nf-kb activation inhibitors” (priority 2002, published 2006).
Where two headings read alike, the source gives them in different places.

How the values were obtained:
[1] = test system: NF-κ B; assay: Inhibitory activity of NF-κ B activation, luciferase reporter assay in HepG2 under TNF-α stimulation; assay type: cell-based, human; conditions: Homo sapiens
Method in brief: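 HepG2 cells transiently transfected with a luciferase reporter driven by five tandem NF-κB binding sites, then incubated 6–24 h. Stimulated with TNF-α (40 ng/ml) with or without test compound for 4 h. Intracellular luciferase read by chemiluminescence; inhibition expressed relative to activity without compound.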

[2] = test system: IL-6; assay: Inhibition of IL-6 production by TNFα stimulation in synovial fibroblasts derived from a rheumatoid patient (ELISA); assay type: cell-based, human; conditions: Homo sapiens, Fibroblast, 72 h; synovial fibroblasts, 10 ng/ml TNFα, 3 days; read-out: Inhibition against Mediator Release IC50(nM) IL-6
Protocol: (§1) Synovial fibroblasts (Human Synoviocyte (RA-Positive), Toyobo, T4040-05) were cultured for 3 days in a medium containing 10 ng/ml of TNFα and a test compound. IL-6 and IL-8 in the supernatant were measured by the ELISA method, and PGE2 (prostaglandin E2) was measured by the EIA method.

[3] = test system: IL-8; assay: Inhibition of IL-8 production by TNFα stimulation in synovial fibroblasts derived from a rheumatoid patient (ELISA); assay type: cell-based, human; conditions: Homo sapiens, Fibroblast, 72 h; synovial fibroblasts, 10 ng/ml TNFα, 3 days; read-out: Inhibition against Mediator Release IC50(nM) IL-8
Protocol: as §1

[4] = test system: PGE2; assay: Inhibition of PGE2 production by TNFα stimulation in synovial fibroblasts derived from a rheumatoid patient (EIA); assay type: cell-based, human; conditions: Homo sapiens, Fibroblast, 72 h; synovial fibroblasts, 10 ng/ml TNFα, 3 days; read-out: Inhibition against Mediator Release IC50(nM) PGE2
Protocol: as §1

[5] = test system: type II collagen induced arthritis; assay: Inhibitory test against type II collagen induced arthritis in mice; assay type: in vivo, Balb/c mice; conditions: 10 mg/kg intraperitoneally once in two days; day 44; score of the control = 100%
Protocol: Balb/c mice were immunized with heterologous type II collagen and Freund's complete adjuvant by subcutaneous or intraperitoneal injection. At 21 days after the treatment, these mice were immunized again with heterologous type II collagen and Freund's incomplete adjuvant by subcutaneous or intraperitoneal injection to develop arthritis.
A test substance suspended in an appropriate diluent or the diluent alone (negative control) was administered intraperitoneally once in two days from the day of the first immunization, and as for arthritis developed after the second immunization, clinical symptoms of each ankle joint of all foots were recorded day after day as numerous scores. When the score of the control measured on day 44 after administration of 10 mg/kg of the medicament of the present invention was expresses as 100%, rates of exacerbation (%) of the clinical symptoms of arthritis were 37.5 (Compound No. 4), 76.5 (Compound No. 90), 56.2 (Compound No. 11), 64.0 (Compound No. 88), and 0.0 (Compound No. 83).

[6] = test system: myocardial ischemia reperfusion disorder; assay: Inhibitory test against myocardial ischemia reperfusion disorder in rats; assay type: in vivo, rat; conditions: 5 mg/kg intraperitoneally; 24 hours after reperfusion
Protocol: Left coronary artery of 7 to 9 week-old rat was ligated to induce ischemic state. After 25 minutes, a test substance suspended in an appropriate diluent or the diluent alone (negative control) was intraperitoneally administered, and after 30 minutes, the animal was reperfused. After 24 hours, a rate of necrosis of an ischemic part of the cardiac muscle was measured.

[7] = test system: Vascular smooth muscle cells of normal coronary artery (Cryo CASMC); assay: Inhibitory test against proliferation of vascular smooth muscle cells of normal coronary artery under proliferation stimulation (MTS assay); assay type: cell-based; conditions: FGF and EGF stimulation, 72 hours
Protocol: Vascular smooth muscle cells of normal coronary artery (Cryo CASMC) were cultured for 2 hours in the presence or absence of a test substance in DMEM medium containing 0.5% of FBS and insulin (5 u g/ml). Then, FGF and EGF were added for proliferation stimulation. The mixture was cultured for 72 hours and proliferation of the cells were measured by the MTS assay. The results aree shown in the following

[8] = test system: Thy-1 nephritis; assay: Rat Thy-1 nephritis model; assay type: in vivo; conditions: intraperitoneal administration of less than 15 mg/kg
[9] = test system: intestinal ischemic reperfusion-caused hepatopathy; assay: Rat intestinal ischemic reperfusion-caused hepatopathy model; assay type: in vivo; conditions: intraperitoneal administration of 10 mg/kg
[10] = test system: myocarditis; assay: Rat myocarditis model immunized with pig heart-derived cardiac myosin; assay type: in vivo; conditions: intraperitoneal administration at 10 mg/kg
[11] = test system: artery abrasion restenosis; assay: Mouse artery abrasion restenosis model; assay type: in vivo; conditions: intraperitoneal administration at 10 mg/kg

**Q.** How did the inhibition at 0.1 µg/mL ([1]; HepG2, 4 h, 0.1 μg/ml, comparison table, reporter assay, read-out: Inhibitory Ratio of NF-κB Activation (%) 0.1 μg/ml) turn out when `O=C(Nc1cc(C(F)(F)F)cc(C(F)(F)F)c1)c1cc(Cl)ccc1O` [Compound No.4, N-[3,5-bis(trifluoromethylphenyl)]-5-chloro-2-hydroxybenzamide] was run?
**A.** Its inhibition at 0.1 µg/mL is 60.9%.

**Q.** What about the inhibition at 1 µg/mL ([1]; HepG2, 4 h, 1 μg/ml, comparison table, reporter assay, read-out: Inhibitory Ratio of NF-κB Activation (%) 1 μg/ml) of the same compound?
**A.** The inhibition at 1 µg/mL was 95.7%.

**Q.** And the inhibition at 10 µg/mL ([1]; HepG2, 4 h, 10 μg/ml, comparison table, reporter assay, read-out: Inhibitory Ratio of NF-κB Activation (%) 10 μg/ml)?
**A.** Its inhibition at 10 µg/mL is 97.5%.

**Q.** What about the inhibition at 1 µg/mL ([1]; 1 μg/mL, HepG2, TNF-α (40 ng/ml), 4 hours, read-out: Inhibitory Ratio of NF-κ B Activation(%) Drug Concentration 1 μg/mL) of the same compound?
**A.** Its inhibition at 1 µg/mL is 95.7%.

**Q.** What about the inhibition at 10 µg/mL ([1]; 10 μg/mL, HepG2, TNF-α (40 ng/ml), 4 hours, read-out: Inhibitory Ratio of NF-κ B Activation(%) Drug Concentration 10 μg/mL) of the same compound?
**A.** The inhibition at 10 µg/mL was 97.5%.

**Q.** What about the IC50 [2] of the same compound?
**A.** Its IC50 is 294 nM.

**Q.** What about the IC50 [3] of the same compound?
**A.** The IC50 was 450 nM.

**Q.** What about the IC50 [4] of the same compound?
**A.** Its IC50 is 388 nM.

**Q.** And the “rates of exacerbation (%) of the clinical symptoms of arthritis” value [5]?
**A.** The value was 37.5%.

**Q.** And the “inhibition of the necrosis of the cardiac muscle in comparison with the control” value [6]?
**A.** Its value is 60%.

**Q.** What about the “Inhibitory Ratio of Proliferation(%) Compound Concentration 250 nM” value ([7]; 250 nM) of the same compound?
**A.** Its value is 87.9%.

**Q.** What about the “Inhibitory Ratio of Proliferation(%) Compound Concentration 500 nM” value ([7]; 500 nM) of the same compound?
**A.** The value was 92.2%.

**Q.** And the renal protective action [8]?
**A.** Its renal protective action is “exhibited a renal protective action”.

**Q.** What about the “TNFα concentration in blood” value [9] of the same compound?
**A.** The value was “lowered”.

**Q.** And the “endotoxic levels in blood” value [9]?
**A.** The value was “lowered endotoxic levels”.

**Q.** What about the inhibition of hepatopathy [9] of the same compound?
**A.** The inhibition of hepatopathy was “significantly inhibited hepatopathy”.

**Q.** What about the “inhibition of the onset of myocarditis” value [10] of the same compound?
**A.** Its value is “significantly also inhibited the onset of myocarditis”.

**Q.** And the “inhibition of proliferation of vascular endothelial cells and vascular smooth muscle cells” value [11]?
**A.** The value was “significantly inhibited proliferation of vascular endothelial cells and vascular smooth muscle cells”.
